{"source": "the supplement of paper PMC10307832", "assay_in_all_cases": "relative viability (nuclei count vs DMSO), 5 days (fraction); higher = more cells survive", "key": {"[1]": {"test_system": "NCI-H1734", "summary_of_the_method": "(§1)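 A single step with final 0.05% Triton X-100, 1% formaldehyde and 1 ug/ml Hoechst fixed the cells and stained nuclei 5 days after treatment. Lung cancer cell lines in 1536-well plates had been treated by pin tool the day after seeding with one drug alone or a fixed anchor-drug dose plus five library-drug doses (not always all listed) in √10 steps, and nuclei were counted on 4× images. Relative viability is the ratio of nuclei in treated wells to nuclei in vehicle wells, taken as the median of duplicate plates.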"}, "[2]": {"test_system": "UMC-11", "summary_of_the_method": "as §1"}, "[3]": {"test_system": "NCI-H2347", "summary_of_the_method": "as §1"}, "[4]": {"test_system": "NCI-H1993", "summary_of_the_method": "as §1"}, "[5]": {"test_system": "SK-LU-1", "summary_of_the_method": "as §1"}, "[6]": {"test_system": "A-427", "summary_of_the_method": "as §1"}, "[7]": {"test_system": "SW 1573", "summary_of_the_method": "as §1"}, "[8]": {"test_system": "NCI-H1792", "summary_of_the_method": "as §1"}, "[9]": {"test_system": "LCLC-103H", "summary_of_the_method": "as §1"}, "[10]": {"test_system": "NCI-H2228", "summary_of_the_method": "as §1"}, "[11]": {"test_system": "LC-2-ad", "summary_of_the_method": "as §1"}, "[12]": {"test_system": "NCI-H1915", "summary_of_the_method": "as §1"}, "[13]": {"test_system": "RERF-LC-KJ", "summary_of_the_method": "as §1"}, "[14]": {"test_system": "NCI-H1975", "summary_of_the_method": "as §1"}, "[15]": {"test_system": "NCI-H23", "summary_of_the_method": "as §1"}, "[16]": {"test_system": "HCC-366", "summary_of_the_method": "as §1"}, "[17]": {"test_system": "NCI-H1755", "summary_of_the_method": "as §1"}, "[18]": {"test_system": "NCI-H1355", "summary_of_the_method": "as §1"}, "[19]": {"test_system": "NCI-H650", "summary_of_the_method": "as §1"}, "[20]": {"test_system": "SK-MES-1", "summary_of_the_method": "as §1"}, "[21]": {"test_system": "HCC-827", "summary_of_the_method": "as §1"}}, "data": [{"molecule": "CCNC(=O)c1noc(-c2cc(C(C)C)c(O)cc2O)c1-c1ccc(CN2CCOCC2)cc1", "note": "[Luminespib] + C[C@]1(O)C[C@@H](c2nc(-c3ccc4ccc(-c5ccccc5)nc4c3)c3c(N)nccn32)C1 [Linsitinib] (partner 1 µM)", "values": [{"measurement": "relative viability", "setting": "[1]; first compound 0.002 µM", "value": 0.917}, {"measurement": "relative viability", "setting": "[1]; first compound 0.006325 µM", "value": 0.792}, {"measurement": "relative viability", "setting": "[1]; first compound 0.02 µM", "value": 0.7}, {"measurement": "relative viability", "setting": "[1]; first compound 0.06325 µM", "value": 0.258}, {"measurement": "relative viability", "setting": "[1]; first compound 0.2 µM", "value": 0.167}, {"measurement": "relative viability", "setting": "[2]; first compound 0.002 µM", "value": 0.997}, {"measurement": "relative viability", "setting": "[2]; first compound 0.006325 µM", "value": 0.993}, {"measurement": "relative viability", "setting": "[2]; first compound 0.02 µM", "value": 0.962}, {"measurement": "relative viability", "setting": "[2]; first compound 0.06325 µM", "value": 0.648}, {"measurement": "relative viability", "setting": "[2]; first compound 0.2 µM", "value": 0.181}, {"measurement": "relative viability", "setting": "[3]; first compound 0.002 µM", "value": 1.03}, {"measurement": "relative viability", "setting": "[3]; first compound 0.02 µM", "value": 0.824}, {"measurement": "relative viability", "setting": "[3]; first compound 0.06325 µM", "value": 0.924}, {"measurement": "relative viability", "setting": "[3]; first compound 0.2 µM", "value": 0.404}, {"measurement": "relative viability", "setting": "[4]; first compound 0.002 µM", "value": 0.829}, {"measurement": "relative viability", "setting": "[4]; first compound 0.006325 µM", "value": 0.735}, {"measurement": "relative viability", "setting": "[4]; first compound 0.02 µM", "value": 0.678}, {"measurement": "relative viability", "setting": "[4]; first compound 0.06325 µM", "value": 0.534}, {"measurement": "relative viability", "setting": "[4]; first compound 0.2 µM", "value": 0.576}, {"measurement": "relative viability", "setting": "[5]; first compound 0.002 µM", "value": 1.02}, {"measurement": "relative viability", "setting": "[5]; first compound 0.006325 µM", "value": 0.89}, {"measurement": "relative viability", "setting": "[5]; first compound 0.02 µM", "value": 0.474}, {"measurement": "relative viability", "setting": "[5]; first compound 0.06325 µM", "value": 0.193}, {"measurement": "relative viability", "setting": "[5]; first compound 0.2 µM", "value": 0.178}, {"measurement": "relative viability", "setting": "[6]; first compound 0.002 µM", "value": 1.12}, {"measurement": "relative viability", "setting": "[6]; first compound 0.006325 µM", "value": 1.09}, {"measurement": "relative viability", "setting": "[6]; first compound 0.02 µM", "value": 0.918}, {"measurement": "relative viability", "setting": "[6]; first compound 0.06325 µM", "value": 1.12}, {"measurement": "relative viability", "setting": "[6]; first compound 0.2 µM", "value": 1.09}, {"measurement": "relative viability", "setting": "[7]; first compound 0.002 µM", "value": 0.88}, {"measurement": "relative viability", "setting": "[7]; first compound 0.006325 µM", "value": 0.594}, {"measurement": "relative viability", "setting": "[7]; first compound 0.02 µM", "value": 0.707}, {"measurement": "relative viability", "setting": "[7]; first compound 0.06325 µM", "value": 0.423}, {"measurement": "relative viability", "setting": "[7]; first compound 0.2 µM", "value": 0.123}, {"measurement": "relative viability", "setting": "[8]; first compound 0.002 µM", "value": 0.444}, {"measurement": "relative viability", "setting": "[8]; first compound 0.006325 µM", "value": 0.469}, {"measurement": "relative viability", "setting": "[8]; first compound 0.02 µM", "value": 0.212}, {"measurement": "relative viability", "setting": "[8]; first compound 0.06325 µM", "value": 0.297}, {"measurement": "relative viability", "setting": "[8]; first compound 0.2 µM", "value": 0.106}, {"measurement": "relative viability", "setting": "[9]; first compound 0.002 µM", "value": 1.14}, {"measurement": "relative viability", "setting": "[9]; first compound 0.006325 µM", "value": 0.971}, {"measurement": "relative viability", "setting": "[9]; first compound 0.02 µM", "value": 1.1}, {"measurement": "relative viability", "setting": "[9]; first compound 0.06325 µM", "value": 1.03}, {"measurement": "relative viability", "setting": "[9]; first compound 0.2 µM", "value": 1.04}, {"measurement": "relative viability", "setting": "[10]; first compound 0.002 µM", "value": 0.612}, {"measurement": "relative viability", "setting": "[10]; first compound 0.006325 µM", "value": 0.629}, {"measurement": "relative viability", "setting": "[10]; first compound 0.02 µM", "value": 0.203}, {"measurement": "relative viability", "setting": "[10]; first compound 0.06325 µM", "value": 0.168}, {"measurement": "relative viability", "setting": "[10]; first compound 0.2 µM", "value": 0.199}, {"measurement": "relative viability", "setting": "[11]; first compound 0.002 µM", "value": 0.887}, {"measurement": "relative viability", "setting": "[11]; first compound 0.006325 µM", "value": 0.806}, {"measurement": "relative viability", "setting": "[11]; first compound 0.02 µM", "value": 0.808}, {"measurement": "relative viability", "setting": "[11]; first compound 0.06325 µM", "value": 0.165}, {"measurement": "relative viability", "setting": "[11]; first compound 0.2 µM", "value": 0.129}, {"measurement": "relative viability", "setting": "[12]; first compound 0.002 µM", "value": 1.12}, {"measurement": "relative viability", "setting": "[12]; first compound 0.006325 µM", "value": 1.09}, {"measurement": "relative viability", "setting": "[12]; first compound 0.02 µM", "value": 1.02}, {"measurement": "relative viability", "setting": "[12]; first compound 0.06325 µM", "value": 1.11}, {"measurement": "relative viability", "setting": "[12]; first compound 0.2 µM", "value": 1.05}, {"measurement": "relative viability", "setting": "[13]; first compound 0.002 µM", "value": 0.9}, {"measurement": "relative viability", "setting": "[13]; first compound 0.006325 µM", "value": 0.846}, {"measurement": "relative viability", "setting": "[13]; first compound 0.02 µM", "value": 0.976}, {"measurement": "relative viability", "setting": "[13]; first compound 0.06325 µM", "value": 0.968}, {"measurement": "relative viability", "setting": "[13]; first compound 0.2 µM", "value": 0.366}, {"measurement": "relative viability", "setting": "[14]; first compound 0.002 µM", "value": 1.08}, {"measurement": "relative viability", "setting": "[14]; first compound 0.006325 µM", "value": 0.882}, {"measurement": "relative viability", "setting": "[14]; first compound 0.02 µM", "value": 0.492}, {"measurement": "relative viability", "setting": "[14]; first compound 0.06325 µM", "value": 0.156}, {"measurement": "relative viability", "setting": "[14]; first compound 0.2 µM", "value": 0.141}, {"measurement": "relative viability", "setting": "[15]; first compound 0.002 µM", "value": 0.674}, {"measurement": "relative viability", "setting": "[15]; first compound 0.006325 µM", "value": 0.55}, {"measurement": "relative viability", "setting": "[15]; first compound 0.02 µM", "value": 0.355}, {"measurement": "relative viability", "setting": "[15]; first compound 0.06325 µM", "value": 0.172}, {"measurement": "relative viability", "setting": "[15]; first compound 0.2 µM", "value": 0.136}, {"measurement": "relative viability", "setting": "[16]; first compound 0.002 µM", "value": 0.56}, {"measurement": "relative viability", "setting": "[16]; first compound 0.006325 µM", "value": 0.696}, {"measurement": "relative viability", "setting": "[16]; first compound 0.02 µM", "value": 0.462}, {"measurement": "relative viability", "setting": "[16]; first compound 0.06325 µM", "value": 0.0199}, {"measurement": "relative viability", "setting": "[16]; first compound 0.2 µM", "value": 0.0167}, {"measurement": "relative viability", "setting": "[17]; first compound 0.002 µM", "value": 0.974}, {"measurement": "relative viability", "setting": "[17]; first compound 0.006325 µM", "value": 0.944}, {"measurement": "relative viability", "setting": "[17]; first compound 0.02 µM", "value": 0.98}, {"measurement": "relative viability", "setting": "[17]; first compound 0.06325 µM", "value": 0.946}, {"measurement": "relative viability", "setting": "[17]; first compound 0.2 µM", "value": 0.921}, {"measurement": "relative viability", "setting": "[18]; first compound 0.002 µM", "value": 0.903}, {"measurement": "relative viability", "setting": "[18]; first compound 0.006325 µM", "value": 0.785}, {"measurement": "relative viability", "setting": "[18]; first compound 0.02 µM", "value": 0.425}, {"measurement": "relative viability", "setting": "[18]; first compound 0.06325 µM", "value": 0.763}, {"measurement": "relative viability", "setting": "[18]; first compound 0.2 µM", "value": 0.81}, {"measurement": "relative viability", "setting": "[19]; first compound 0.002 µM", "value": 0.917}, {"measurement": "relative viability", "setting": "[19]; first compound 0.006325 µM", "value": 0.888}, {"measurement": "relative viability", "setting": "[19]; first compound 0.02 µM", "value": 0.497}, {"measurement": "relative viability", "setting": "[19]; first compound 0.06325 µM", "value": 0.0891}, {"measurement": "relative viability", "setting": "[19]; first compound 0.2 µM", "value": 0.117}, {"measurement": "relative viability", "setting": "[20]; first compound 0.002 µM", "value": 1}, {"measurement": "relative viability", "setting": "[20]; first compound 0.006325 µM", "value": 0.893}, {"measurement": "relative viability", "setting": "[20]; first compound 0.02 µM", "value": 1.13}, {"measurement": "relative viability", "setting": "[20]; first compound 0.06325 µM", "value": 0.916}, {"measurement": "relative viability", "setting": "[20]; first compound 0.2 µM", "value": 0.164}, {"measurement": "relative viability", "setting": "[21]; first compound 0.002 µM", "value": 0.922}, {"measurement": "relative viability", "setting": "[21]; first compound 0.006325 µM", "value": 0.925}, {"measurement": "relative viability", "setting": "[21]; first compound 0.02 µM", "value": 0.937}, {"measurement": "relative viability", "setting": "[21]; first compound 0.06325 µM", "value": 0.974}, {"measurement": "relative viability", "setting": "[21]; first compound 0.2 µM", "value": 1.02}]}]}
